We go through 13 compounds from paper PMC11344848, “Proximity-driven site-specific cyclization of phage-displayed peptides” (Nature Communications, 2024).

The test system of data set [1] is Ph1 phage particles. Kind of data set: Phage infectivity studies (titre of infective phage after linker treatment). The following applies: Figure 4d; phage treated with DTT (1 mM) only. The method, then:
CCA: Ph1 phage particles (~ 10^11) were reduced with DTT (1 mM) for 30 min at 37 °C in a total volume of 95 µL. Linker CCA (final concentration = 150 µM) in DMSO (5% total volume) was added and the reaction was left to incubate for 2 h at room temperature. DBX: Ph1 phage particles (~ 10^11) were reduced with TCEP (1 mM) for 30 min at 37 °C in a total volume of 95 µL. Reduced Ph1 phage particles were buffer exchanged into NH4HCO3 (20 mM, pH 8.0) using Zeba™ Spin Desalting Columns (7 K MWCO, 0.5 mL) following the manufacturer’s instructions. Linker DBX (final concentration = 150 µM) in DMSO (5% total volume) was added and the reaction was left to incubate for 2 h at room temperature.
For each sample, two 100-fold dilutions in 2xTY were prepared. An aliquot (10 μL) of the 10^−4 dilution sample was added to TG1 E. coli (990 µL) grown to OD600nm = 0.6. After 1 h of infection at 37 °C and 150 RPM, four further 10-fold dilutions in 2xTY were prepared (10^−7 – 10^−10). Aliquots (100 µL) of dilution samples 10^−7 – 10^−10 were plated O/N on 2xTYAG agar at 37 °C. The next day, phage titres were calculated according to the equation.
Cfu/mL = [No. of colonies] x [Dilution factor] x [1/Volume plated (mL)].

Data set [2] concerns the target T1, streptavidin (Streptomyces avidinii, UniProt P22629). Kind of data set: Streptavidin-binding phage ELISA. The settings on record: for Phage ELISA signal, Linear: Figure 6a, peptide linear (reduced using DTT), bound phage detected with anti-M13-HRP; for Phage ELISA signal, Linear / Phage ELISA signal, Lin: phage clone; for Phage ELISA signal, Lin: Figure 6b, peptide linear; for Binding to streptavidin in phage ELISA (in words): phage-displayed peptide, form as stated in the sentence (CCA replaced with linkers 1, 2, 3 or 4; CCA-cyclized negative control). The method, then: All incubation steps were performed at room temperature unless otherwise stated. A Pierce™ streptavidin-coated 96 well plate (Thermo Fisher Scientific) was treated O/N at 4 °C with biotinylated antigen (50 µL/well, 10 ng/µL in assay buffer). The next day, the plate was washed x3 with PBS to remove unbound antigen and incubated for 1 h with blocking buffer (300 µL/ well). At the same time, phage cultures (100 µL, ~ 10^10) were incubated for 1 h with blocking buffer (400 µL).
The 96-well plate was washed x3 with PBS and subsequently incubated with blocked phage (50 µL/ well) for 1 h. The plate was washed x3 with PBST, and bound phage was detected via the addition of anti-M13 HRP conjugated secondary antibody (50 µL/ well, 1/5000 dilution in blocking buffer, Abcam). After 1 h, the plate was washed x3 with PBST. HRP was developed using TMB substrate (50 µL/ well, Thermo Fisher Scientific), quenched after 5 min with H2SO4 (50 µL/ well, 0.5 M) and visualised at λ = […] using an EnVision Microplate Reader (PerkinElmer). Data was processed using SoftMax® Pro Software v7. […]
Biotinylated antigen = none required, assay buffer = N/A, blocking buffer = 3% (w/v) mPBS.
On the technique in general: In an ELISA, binding on a coated surface is turned into a signal by an enzyme label.

Data set [3] concerns the target T1, streptavidin. The data set is described as follows: Sequencing of clones enriched after three rounds of selection of library L1-CCA against streptavidin. The following applies: clones sequenced after three rounds of selection against streptavidin. On the procedure:
Streptavidin-coated magnetic Dynabeads™ (50 μL/ selection, prewashed with 1 mL PBS) were blocked with 3% (w/v) mPBS (1 mL) for 1 h on a rotary mixer at room temperature and 20 RPM. L1 phage particles (~ 10^11) were reduced with DTT (1 mM) for 30 min at 37 °C in PBS (total reaction volume = 100 µL). The beads were pelleted on a magnetic stand and reduced L1 phage particles (~ 10^11) were added. After 1 h on a rotary mixer at room temperature and 20 RPM, the beads were pelleted and the supernatant was transferred to a fresh Eppendorf. Linker CCA (final concentration = 150 µM) in DMSO (5% total volume) was added and the reaction was left to incubate for 2 h at room temperature.
L1-CCA: Output phage from the negative streptavidin selection above.
L1-Red/ L1-CCA input phage (~ 10^11) and streptavidin-coated magnetic Dynabeads™ (50 μL/ selection, prewashed with 1 mL PBS) were incubated with 3% (w/v) mPBS (volume made up to 500 μL for phage, 1 mL for beads) for 1 h on a rotary mixer at room temperature and 20 RPM. The beads were pelleted on a magnetic stand and resuspended in 3% (w/v) mPBS (100 μL). An aliquot of the blocked beads (50 μL) was added to the blocked phage. The mixture was incubated for 1 h on a rotary mixer at room temperature and 20 RPM.
Using a Kingfisher mL apparatus, the beads were washed x5 with PBST (1 mL) and eluted into trypsin solution (10 µg/ mL trypsin in 0.1 M pH 7.0 sodium phosphate buffer, 200 µL). Trypsin digest was performed for 30 min at 37 °C and 600 RPM, the beads were pelleted and the supernatant was added to OD600nm = 0.6 TG1 E. coli (800 µL). After 1 h at 37 °C and 250 RPM, output titres were performed and the remaining cells were plated O/N on a 2xTYAG bioassay plate at 37 °C. The next day, the cells were harvested from the plate, as described below.

In data set [4] the target is T1, streptavidin. The data set is described as follows: SPR binding of synthetic peptides to immobilised streptavidin (Biacore 8K). The settings on record: synthetic peptide as disulphide-bonded entity, 25 °C, 4.1-9000 nM, HBS-EP+ pH 7.4. The method, then:
The affinity of peptides Str1 and Str1-CCA to streptavidin was measured using the Biacore 8 K (GE Healthcare) at 25 °C.
For cyclization, peptide Str1 (5 mg, GL Biochem) was dissolved in PBS (20 mL) and treated with DTT (1.2 eq.) for 1 h at RT then linker CCA (2 eq.) for 3 h at RT. The reaction was purified by RP-HPLC and characterised by LC-MS to confirm the correct identity of the cyclized product, Str1-CCA. Str1 = 1351 Da and Str1-CCA = 1601 Da.
Streptavidin was covalently immobilised to a CM5 chip surface (Cytiva, BR100530, lot 10340325) using standard amine coupling techniques at a concentration of 16 µg/ml in 10 mM sodium acetate pH 4.5.
The peptides were serially diluted (4.1 – 9000 nM) in HBS-EP + buffer pH 7.4 and flowed over the chip at 30 µL/min, with 180 s association and 600 s dissociation. Multiple buffer-only injections were made under the same conditions to allow for double reference subtraction of the final sensorgram sets, which were analysed using Biacore 8 K Evaluation Software. Each experiment was repeated three times, which gave consistent results. Representative results are presented in the paper.
For orientation: In SPR one partner is held on a chip, and binding of the other changes the refractive index at the surface.

Positions of bridges follow the written chain, without caps; N, C: chain ends. No end group written: not given here.

T1 sequence (P22629 25-183): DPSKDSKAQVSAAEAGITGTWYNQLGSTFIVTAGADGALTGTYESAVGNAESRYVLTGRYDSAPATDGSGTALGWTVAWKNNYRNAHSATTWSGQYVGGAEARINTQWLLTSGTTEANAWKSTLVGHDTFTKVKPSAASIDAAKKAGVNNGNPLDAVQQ

`O[C@@H](CS)[C@@H](O)CS` [DTT, reference compound] displayed a Phage titre in data set [1] of 1.30E+11 Cfu/mL.

Turning to “CGGSGGC [negative control phage construct, reference compound]”, in data set [2], the “Phage ELISA signal, Linear” value is recorded as 0.052; the “Phage ELISA signal, Lin” value is listed as 0.065; the “Binding to streptavidin in phage ELISA (in words)” value is given as “No binding”.

Regarding “CPFNFFIWNDEC [Str9, phage clone displaying streptavidin-selected peptide]”, the “Phage ELISA signal, Linear” value in data set [2] was 0.315. In addition, in data set [3], the “Abundance (Total = 96)” value is listed as 2.

Regarding “CPFNIASPFYGC [Str6, phage clone displaying streptavidin-selected peptide]”, in data set [2], the “Phage ELISA signal, Linear” value came out at 0.254. In data set [3], the “Abundance (Total = 96)” value is reported as 12.

Consider “CPFNIKNPDDGC [Str2, phage clone displaying streptavidin-selected peptide]”, for which the “Phage ELISA signal, Linear” value in data set [2] is 0.111. In data set [3], the “Abundance (Total = 96)” value worked out at 7.

Regarding “CPFNILVPFIDC [Str4, phage clone displaying streptavidin-selected peptide]”, the “Phage ELISA signal, Linear” value in data set [2] is 0.254. In data set [3], the “Abundance (Total = 96)” value is listed as 5.

“CPINIFHPPPDC (disulfide 1-12 (inferred)) [Str1, streptavidin-selected peptide; tested as phage clone and as synthetic disulphide-bonded peptide]”: the “SPR signal (in words)” value in data set [4] is recorded as “no SPR signal observed”. Besides, in data set [2], the “Phage ELISA signal, Linear” value was 0.115. In addition, the “Abundance (Total = 96)” value in data set [3] amounted to 42.

Take “CPINVQYSTGTC [Str7, phage clone displaying streptavidin-selected peptide]”: in data set [2], the “Phage ELISA signal, Linear” value worked out at 0.032; the “Phage ELISA signal, Lin” value is given as 0.106; the “Binding to streptavidin in phage ELISA (in words)” value is reported as “no binding”. The “Abundance (Total = 96)” value in data set [3] is recorded as 1.

Regarding CPTNTQYDLTIC, the “Abundance (Total = 96)” value in data set [3] is listed as 4.

“CPYNIAGPPLYC [Str3, phage clone displaying streptavidin-selected peptide]”: the “Phage ELISA signal, Linear” value in data set [2] came to 0.123. For the same compound, the “Abundance (Total = 96)” value in data set [3] was determined as 13.

For the compound “CPYNIINPTFDC [Str5, phage clone displaying streptavidin-selected peptide]”, the “Phage ELISA signal, Linear” value in data set [2] is recorded as 0.096. For the same compound, the “Abundance (Total = 96)” value in data set [3] came out at 8.

For “CPYNVERPDSHC [Str8, phage clone displaying streptavidin-selected peptide]”, the “Phage ELISA signal, Linear” value in data set [2] was found to be 0.029. Besides, the “Abundance (Total = 96)” value in data set [3] is 2.

For the compound CWLNHPQAPPEC [reference compound], the “Phage ELISA signal, Linear” value in data set [2] is 1.437.
